Data: patent publication US7417041B2, “Imidazopyrimidines as transforming growth factor (TGF) inhibitors” (Pfizer Inc., priority 2003, dated 2008)

Molecular target: T1, TβRI (Homo sapiens, UniProt P36897)
T1 construct: using either the kinase domain of ALK5 with Smad3 as substrate; GST
T1 sequence (P36897 205-495 limits assumed): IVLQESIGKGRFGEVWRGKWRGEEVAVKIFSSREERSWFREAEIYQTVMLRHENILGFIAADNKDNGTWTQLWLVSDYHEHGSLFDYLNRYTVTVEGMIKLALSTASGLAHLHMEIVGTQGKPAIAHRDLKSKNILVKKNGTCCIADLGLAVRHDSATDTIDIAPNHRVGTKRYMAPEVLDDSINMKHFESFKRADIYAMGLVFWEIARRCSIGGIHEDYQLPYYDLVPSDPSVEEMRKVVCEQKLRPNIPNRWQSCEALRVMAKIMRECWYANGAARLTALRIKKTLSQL
Assay: ALK-5 (TβRI) kinase assay
Format: biochemical
Details: read-out: in vitro IC50 value against TβRI
Description: ALK-5 (TβRI) Kinase Assay Protocol
The kinase assays were performed with 65 nM GST-ALK5 and 84 nM GST-Smad3 in 50 mM HEPES, 5 mM MgCl2, 1 mM CaCl2, 1 mM dithiothreitol, and 3_M ATP. Reactions were incubated with 0.5_Ci of [33 P]ATP for 3 h at 30° C. Phosphorylated protein was captured on P-81 paper (Whatman, Maidstone, England), washed with 0.5% phosphoric acid, and counted by liquid scintillation. Alternatively, Smad3 or Smad1 protein was also coated onto FlashPlate Sterile Basic Microplates (PerkinElmer Life Sciences, Boston, Mass.). Kinase assays were then performed in Flash-Plates with same assay conditions using either the kinase domain of ALK5 with Smad3 as substrate or the kinase domain of ALK6 (BMP receptor) with Smad1 as substrate. Plates were washed three times with phosphate buffer and counted by TopCount (Packard Bio-science, Meriden, Conn.). (Laping, N. J. et al. Molecular Pharmacology 62:58-64 (2002)).

Cc1cccc(-c2c(-c3ccc4nnn(C)c4c3)nc3ncccn23)n1 [Example 15, 1-Methyl-6-[3-(6-methyl-pyridin-2-yl)-imidazo[1,2-a]pyrimidin-2-yl]-1H-benzotriazole] gave an IC50 of 253 nM.
